Reference: ChEMBL document CHEMBL1201861, “Genomics of Drug Sensitity in Cancer screening data, Wellcome Trust Sanger Institute”

Columns and labels:
Test in all cases: cells
SW837 = type: functional, cell-based, Homo sapiens; conditions: Homo sapiens, SW837;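 also: growth inhibition of SW837 cells, determined with a cell viability assay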
Description: SANGER: Inhibition of human SW837 cell growth in a cell viability assay.

SKG-IIIa = type: functional, cell-based, Homo sapiens; conditions: Homo sapiens, SKG-IIIa;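 also: cell growth inhibition, read out with a cell viability assay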
Description: SANGER: Inhibition of human SKG-IIIa cell growth in a cell viability assay.

SF-295 = type: functional, cell-based, Homo sapiens; conditions: Homo sapiens, SF-295;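 also: growth inhibition of SF-295 cells, read out with a cell viability assay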
Description: SANGER: Inhibition of human SF295 cell growth in a cell viability assay.

NB14 = type: functional, cell-based; conditions: Homo sapiens;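 also: growth inhibition of NB14 cells measured with a cell viability assay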
Description: SANGER: Inhibition of human NB14 cell growth in a cell viability assay.

IST-MES1 = type: functional, cell-based, Homo sapiens; conditions: Homo sapiens, IST-MES1;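 also: growth inhibition of IST-MES1 cells, measured with a cell viability assay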
Description: SANGER: Inhibition of human IST-MES1 cell growth in a cell viability assay.

RPMI-8226 = type: functional, cell-based; conditions: Homo sapiens
Description: SANGER: Inhibition of human RPMI-8226 cell growth in a cell viability assay.

BB30-HNC = type: functional, cell-based, Homo sapiens; conditions: Homo sapiens, BB30-HNC;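 also: growth inhibition of the cultured cell line, read out by a cell viability assay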
Description: SANGER: Inhibition of human BB30-HNC cell growth in a cell viability assay.

RXF 393 = type: functional, cell-based; conditions: Homo sapiens;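 also: growth inhibition of human RXF 393 cells, read out with a cell viability assay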
Description: SANGER: Inhibition of human RXF393 cell growth in a cell viability assay.

L-363 = type: functional, cell-based; conditions: Homo sapiens
Description: SANGER: Inhibition of human L-363 cell growth in a cell viability assay.

HuP-T3 = type: functional, cell-based, Homo sapiens; conditions: Homo sapiens, HuP-T3;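 also: HuP-T3 cell growth inhibition, read out with a cell viability assay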
Description: SANGER: Inhibition of human HuP-T3 cell growth in a cell viability assay.

8305C = type: functional, cell-based, Homo sapiens; conditions: Homo sapiens, 8305C
Description: SANGER: Inhibition of human 8305C cell growth in a cell viability assay.

KURAMOCHI = type: functional, cell-based; conditions: Homo sapiens;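 also: growth inhibition of KURAMOCHI cells, read out with a cell viability assay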
Description: SANGER: Inhibition of human KURAMOCHI cell growth in a cell viability assay.

NCI-N87 = type: functional, cell-based, Homo sapiens; conditions: Homo sapiens, NCI-N87;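 also: growth inhibition of human NCI-N87 cells, read out with a cell viability assay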
Description: SANGER: Inhibition of human NCI-N87 cell growth in a cell viability assay.

Calu-3 = type: functional, cell-based, Homo sapiens; conditions: Homo sapiens, Calu-3;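 also: growth inhibition of human Calu-3 cells, determined with a cell viability assay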
Description: SANGER: Inhibition of human Calu-3 cell growth in a cell viability assay.

HCC2218 = type: functional, cell-based; conditions: Homo sapiens;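 also: cell viability assay read-out, with IC50 given as the concentration that inhibits growth of the cell line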
Description: SANGER: Inhibition of human HCC2218 cell growth in a cell viability assay.

PC-3 = type: functional, cell-based, Homo sapiens; conditions: Homo sapiens, PC-3;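 also: cell viability assay measuring growth inhibition of PC-3 cells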
Description: SANGER: Inhibition of human PC-3 cell growth in a cell viability assay.

EKVX = type: functional, cell-based, Homo sapiens; conditions: Homo sapiens, EKVX;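 also: growth inhibition of human EKVX cells, read out with a cell viability assay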
Description: SANGER: Inhibition of human EKVX cell growth in a cell viability assay.

BHT-101 = type: functional, cell-based, Homo sapiens; conditions: Homo sapiens, BHT-101
Description: SANGER: Inhibition of human BHT-101 cell growth in a cell viability assay.

TE-9 = type: functional, cell-based, Homo sapiens; conditions: Homo sapiens, TE-9;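 also: cell growth inhibition, measured with a cell viability readout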
Description: SANGER: Inhibition of human TE-9 cell growth in a cell viability assay.

A2780 = type: functional, cell-based, Homo sapiens; conditions: Homo sapiens, A2780;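 also: growth inhibition of A2780 cells, read out with a cell viability assay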
Description: SANGER: Inhibition of human A2780 cell growth in a cell viability assay.

Becker = type: functional, cell-based, Homo sapiens; conditions: Homo sapiens, Becker;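 also: growth inhibition of Becker cells, read out with a cell viability assay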
Description: SANGER: Inhibition of human Becker cell growth in a cell viability assay.

GAK = type: functional, cell-based, Homo sapiens; conditions: Homo sapiens, GAK;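 also: cell growth inhibition read out by a cell viability assay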
Description: SANGER: Inhibition of human GAK cell growth in a cell viability assay.

ES8 = type: functional, cell-based, Homo sapiens; conditions: Homo sapiens, ES8;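 also: growth inhibition of human ES8 cells, read out with a cell viability assay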
Description: SANGER: Inhibition of human ES8 cell growth in a cell viability assay.

NCI-H2052 = type: functional, cell-based, Homo sapiens; conditions: Homo sapiens, NCI-H2052;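 also: growth inhibition of NCI-H2052 cells, read out with a cell viability assay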
Description: SANGER: Inhibition of human NCI-H2052 cell growth in a cell viability assay.

EW-16 = type: functional, cell-based, Homo sapiens; conditions: Homo sapiens, EW-16;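 also: growth inhibition of human EW-16 cells, read out as cell viability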
Description: SANGER: Inhibition of human EW-16 cell growth in a cell viability assay.

COLO-741 = type: functional, cell-based, Homo sapiens; conditions: Homo sapiens, COLO-741
Description: SANGER: Inhibition of human COLO-741 cell growth in a cell viability assay.

OVCAR-5 = type: functional, cell-based, Homo sapiens; conditions: Homo sapiens, OVCAR-5;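 also: growth inhibition of human OVCAR-5 cells, read out with a cell viability assay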
Description: SANGER: Inhibition of human OVCAR-5 cell growth in a cell viability assay.

SBC-1 = type: functional, cell-based; conditions: Homo sapiens;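 also: cell viability assay measuring growth inhibition of the SBC-1 cell line, IC50 being the concentration that halves growth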
Description: SANGER: Inhibition of human SBC-1 cell growth in a cell viability assay.

786-0 = type: functional, cell-based, Homo sapiens; conditions: Homo sapiens
Description: SANGER: Inhibition of human 786-0 cell growth in a cell viability assay.

HOP-62 = type: functional, cell-based, Homo sapiens; conditions: Homo sapiens, HOP-62;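 also: cell growth inhibition determined with a viability assay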
Description: SANGER: Inhibition of human HOP-62 cell growth in a cell viability assay.

GI-ME-N = type: functional, cell-based, Homo sapiens; conditions: Homo sapiens, GI-ME-N;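 also: growth inhibition of human GI-ME-N cells, read out with a cell viability assay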
Description: SANGER: Inhibition of human GI-ME-N cell growth in a cell viability assay.

LB1047-RCC = type: functional, cell-based, Homo sapiens; conditions: Homo sapiens, LB1047-RCC;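 also: inhibition of cell growth, determined with a cell viability assay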
Description: SANGER: Inhibition of human LB1047-RCC cell growth in a cell viability assay.

OCI-AML2 = type: functional, cell-based; conditions: Homo sapiens;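 also: growth inhibition of OCI-AML2 cells, read out with a cell viability assay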
Description: SANGER: Inhibition of human OCI-AML2 cell growth in a cell viability assay.

NCI-H28 = type: functional, cell-based, Homo sapiens; conditions: Homo sapiens, NCI-H28;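 also: growth inhibition of human NCI-H28 cells, read out as cell viability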
Description: SANGER: Inhibition of human NCI-H28 cell growth in a cell viability assay.

HD-MY-Z = type: functional, cell-based, Homo sapiens; conditions: Homo sapiens, HD-MY-Z;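 also: growth inhibition of HD-MY-Z cells, read out with a cell viability assay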
Description: SANGER: Inhibition of human HD-MY-Z cell growth in a cell viability assay.

HCE-T = type: functional, cell-based, Homo sapiens; conditions: Homo sapiens, HCE-T;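 also: cell viability assay read-out, reporting inhibition of HCE-T cell growth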
Description: SANGER: Inhibition of human HCE-T cell growth in a cell viability assay.

CAL-27 = type: functional, cell-based, Homo sapiens; conditions: Homo sapiens, CAL-27;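 also: Viability-based readout, IC50 reflecting inhibition of CAL-27 cell growth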
Description: SANGER: Inhibition of human CAL-27 cell growth in a cell viability assay.

769-P = type: functional, cell-based, Homo sapiens; conditions: Homo sapiens, 769-P
Description: SANGER: Inhibition of human 769-P cell growth in a cell viability assay.

RD = type: functional, cell-based, Homo sapiens; conditions: Homo sapiens, RD
Description: SANGER: Inhibition of human RD cell growth in a cell viability assay.

KP-N-YN = type: functional, cell-based; conditions: Homo sapiens;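 also: growth inhibition of KP-N-YN cells, read out with a cell viability assay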
Description: SANGER: Inhibition of human KP-N-YN cell growth in a cell viability assay.

TE-10 = type: functional, cell-based, Homo sapiens; conditions: Homo sapiens, TE-10;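 also: growth inhibition of TE-10 cells, measured by a cell viability assay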
Description: SANGER: Inhibition of human TE-10 cell growth in a cell viability assay.

HCC38 = type: functional, cell-based, Homo sapiens; conditions: Homo sapiens, HCC38;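 also: cell viability assay on the human HCC38 cell line, with IC50 marking the concentration that inhibits cell growth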
Description: SANGER: Inhibition of human HCC38 cell growth in a cell viability assay.

COLO-829 = type: functional, cell-based, Homo sapiens; conditions: Homo sapiens, COLO-829
Description: SANGER: Inhibition of human COLO-829 cell growth in a cell viability assay.

UMUC3 = type: functional, cell-based, Homo sapiens; conditions: Homo sapiens, UMUC3;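 also: growth inhibition of human UM-UC-3 cells, read out with a cell viability assay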
Description: SANGER: Inhibition of human UM-UC-3 cell growth in a cell viability assay.

GMS-10 = type: functional, cell-based, Homo sapiens; conditions: Homo sapiens, GMS-10;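 also: growth inhibition of GMS-10 cells, read out as cell viability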
Description: SANGER: Inhibition of human GMS-10 cell growth in a cell viability assay.

MZ7-mel = type: functional, cell-based, Homo sapiens; conditions: Homo sapiens, MZ7-mel;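 also: growth inhibition of human MZ7-mel cells, measured by a cell viability assay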
Description: SANGER: Inhibition of human MZ7-mel cell growth in a cell viability assay.

NB6 = type: functional, cell-based, Homo sapiens; conditions: Homo sapiens, NB6;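 also: growth inhibition of NB6 cells, read out by a cell viability assay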
Description: SANGER: Inhibition of human NB6 cell growth in a cell viability assay.

LK-2 = type: functional, cell-based, Homo sapiens; conditions: Homo sapiens, LK-2;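 also: growth inhibition of LK-2 cells, read out with a viability assay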
Description: SANGER: Inhibition of human LK-2 cell growth in a cell viability assay.

NOMO-1 = type: functional, cell-based; conditions: Homo sapiens;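 also: growth inhibition of human NOMO-1 cells measured by a cell viability assay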
Description: SANGER: Inhibition of human NOMO-1 cell growth in a cell viability assay.

C-33-A = type: functional, cell-based, Homo sapiens; conditions: Homo sapiens, C-33-A;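 also: cell viability assay measuring growth inhibition of C-33-A cells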
Description: SANGER: Inhibition of human C-33-A cell growth in a cell viability assay.

SK-MEL-2 = type: functional, cell-based, Homo sapiens; conditions: Homo sapiens, SK-MEL-2;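 also: growth inhibition of human SK-MEL-2 cells measured with a cell viability assay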
Description: SANGER: Inhibition of human SK-MEL-2 cell growth in a cell viability assay.

KARPAS-299 = type: functional, cell-based; conditions: Homo sapiens
Description: SANGER: Inhibition of human KARPAS-299 cell growth in a cell viability assay.

O=C(NOCC1CC1)c1ccc(F)c(F)c1Nc1ccc(I)cc1Cl [CI-1040]
IC50 (SW837): > 10000 nM | IC50 (SKG-IIIa): > 10000 nM | IC50 (SF-295; read-out: IC50): > 10000 nM | IC50 (NB14): 7670 nM | IC50 (IST-MES1): > 10000 nM | IC50 (RPMI-8226): > 10000 nM | IC50 (BB30-HNC): > 10000 nM | IC50 (RXF 393): 1980 nM | IC50 (L-363): 2740 nM | IC50 (HuP-T3): 5620 nM | IC50 (8305C): 7100 nM | IC50 (KURAMOCHI): > 10000 nM | IC50 (NCI-N87): > 10000 nM | IC50 (Calu-3): > 10000 nM | IC50 (HCC2218): 2650 nM | IC50 (PC-3): > 10000 nM | IC50 (EKVX): > 10000 nM | IC50 (BHT-101): 286 nM | IC50 (TE-9): > 10000 nM | IC50 (A2780): 498 nM | IC50 (Becker): > 10000 nM | IC50 (GAK): 3330 nM | IC50 (ES8): > 10000 nM | IC50 (NCI-H2052): > 10000 nM | IC50 (EW-16): 8080 nM | IC50 (COLO-741): 3190 nM | IC50 (OVCAR-5): 1780 nM | IC50 (SBC-1): 8870 nM | IC50 (786-0): 3270 nM | IC50 (HOP-62): > 10000 nM | IC50 (GI-ME-N): > 10000 nM | IC50 (LB1047-RCC): 4740 nM | IC50 (OCI-AML2): > 10000 nM | IC50 (NCI-H28): > 10000 nM | IC50 (HD-MY-Z): 1570 nM | IC50 (HCE-T): 2830 nM | IC50 (CAL-27): 2390 nM | IC50 (769-P): > 10000 nM | IC50 (RD): 2450 nM | IC50 (KP-N-YN): > 10000 nM | IC50 (TE-10): > 10000 nM | IC50 (HCC38): > 10000 nM | IC50 (COLO-829): 1620 nM | IC50 (UMUC3): 5180 nM | IC50 (GMS-10): > 10000 nM | IC50 (MZ7-mel): 263 nM | IC50 (NB6): > 10000 nM | IC50 (LK-2): > 10000 nM | IC50 (NOMO-1): 257 nM | IC50 (C-33-A): > 10000 nM | IC50 (SK-MEL-2): 1570 nM | IC50 (KARPAS-299): > 10000 nM

CC(=O)O[C@@]12CO[C@@H]1C[C@H](O)[C@@]1(C)C(=O)[C@H](O)C3=C(C)[C@@H](OC(=O)[C@H](O)[C@@H](NC(=O)OC(C)(C)C)c4ccccc4)C[C@@](O)([C@@H](OC(=O)c4ccccc4)[C@H]21)C3(C)C [DOCETAXEL]
IC50 (SW837): > 10 nM | IC50 (SKG-IIIa): 2.86 nM | IC50 (SF-295): > 10 nM | IC50 (NB14): 0.26 nM | IC50 (IST-MES1): 8.4 nM | IC50 (RPMI-8226): 4.97 nM | IC50 (BB30-HNC): 1.05 nM | IC50 (RXF 393): 2.22 nM | IC50 (L-363): 3.76 nM | IC50 (HuP-T3): > 10 nM | IC50 (8305C): 5.76 nM | IC50 (KURAMOCHI): > 10 nM | IC50 (NCI-N87): > 10 nM | IC50 (Calu-3): > 10 nM | IC50 (HCC2218): > 10 nM | IC50 (PC-3): > 10 nM | IC50 (EKVX): > 10 nM | IC50 (BHT-101): 9.8 nM | IC50 (TE-9): 0.676 nM | IC50 (A2780): 3.35 nM | IC50 (Becker): 1.83 nM | IC50 (GAK): > 10 nM | IC50 (ES8): 0.26 nM | IC50 (NCI-H2052): 7.27 nM | IC50 (EW-16): 1.35 nM | IC50 (COLO-741): 8.2 nM | IC50 (OVCAR-5): 1.99 nM | IC50 (SBC-1): 0.43 nM | IC50 (786-0): 7.86 nM | IC50 (HOP-62): > 10 nM | IC50 (GI-ME-N): 3.58 nM | IC50 (LB1047-RCC): 8.8 nM | IC50 (OCI-AML2): > 10 nM | IC50 (NCI-H28): 3.34 nM | IC50 (HD-MY-Z): 1.41 nM | IC50 (HCE-T): 0.162 nM | IC50 (CAL-27): 0.339 nM | IC50 (769-P): > 10 nM | IC50 (RD): 4 nM | IC50 (KP-N-YN): > 10 nM | IC50 (TE-10): 2.54 nM | IC50 (HCC38): 6 nM | IC50 (COLO-829): 7.25 nM | IC50 (UMUC3): > 10 nM | IC50 (GMS-10): 0.941 nM | IC50 (MZ7-mel): > 10 nM | IC50 (NB6): > 10 nM | IC50 (LK-2): 1.21 nM | IC50 (NOMO-1): 5.13 nM | IC50 (C-33-A): 2.66 nM | IC50 (SK-MEL-2): 1.7 nM | IC50 (KARPAS-299): > 10 nM

C=CCNC1=C2C[C@@H](C)C[C@H](OC)[C@H](O)[C@@H](C)/C=C(\C)[C@H](OC(N)=O)[C@@H](OC)/C=C\C=C(/C)C(=O)NC(=CC1=O)C2=O [TANESPIMYCIN]
IC50 (SW837): > 1000 nM | IC50 (SKG-IIIa): 49.9 nM | IC50 (SF-295; read-out: IC50): 64.5 nM | IC50 (NB14): > 1000 nM | IC50 (IST-MES1): > 1000 nM | IC50 (RPMI-8226): 663 nM | IC50 (BB30-HNC): 173 nM | IC50 (RXF 393): 120 nM | IC50 (L-363): 82.1 nM | IC50 (HuP-T3): 401 nM | IC50 (8305C): 725 nM | IC50 (KURAMOCHI): 952 nM | IC50 (NCI-N87): 25.9 nM | IC50 (Calu-3): > 1000 nM | IC50 (HCC2218): 24.9 nM | IC50 (PC-3): 515 nM | IC50 (EKVX): > 1000 nM | IC50 (BHT-101): > 1000 nM | IC50 (TE-9): 218 nM | IC50 (A2780): 25.3 nM | IC50 (Becker): 38.9 nM | IC50 (GAK): 136 nM | IC50 (ES8): 308 nM | IC50 (NCI-H2052): > 1000 nM | IC50 (EW-16): > 1000 nM | IC50 (COLO-741): > 1000 nM | IC50 (OVCAR-5): 34.8 nM | IC50 (SBC-1): 267 nM | IC50 (786-0): 154 nM | IC50 (HOP-62): 499 nM | IC50 (GI-ME-N): 772 nM | IC50 (LB1047-RCC): 53 nM | IC50 (OCI-AML2): 654 nM | IC50 (NCI-H28): 118 nM | IC50 (HD-MY-Z): 109 nM | IC50 (HCE-T): 386 nM | IC50 (CAL-27): 190 nM | IC50 (769-P): 213 nM | IC50 (RD): 191 nM | IC50 (KP-N-YN): > 1000 nM | IC50 (TE-10): 414 nM | IC50 (HCC38): 301 nM | IC50 (COLO-829): 120 nM | IC50 (UMUC3): 455 nM | IC50 (GMS-10): 67 nM | IC50 (MZ7-mel): 176 nM | IC50 (NB6): > 1000 nM | IC50 (LK-2): 183 nM | IC50 (NOMO-1): > 1000 nM | IC50 (C-33-A): > 1000 nM | IC50 (SK-MEL-2): 90.6 nM | IC50 (KARPAS-299): > 1000 nM
